Laboratory results: ChEMBL document CHEMBL1145050, “Discovery of (3S)-amino-(4R)-ethylpiperidinyl quinolones as potent antibacterial agents with a broad spectrum of activity and activity against resistant pathogens” (J Med Chem, 2003)
In brackets after ≈: the same amount, converted by molar mass.

Experiments:
Pseudomonas aeruginosa = assay: Minimum inhibitory concentration against Pseudomonas aeruginosa, strain PS96; type: functional
Streptococcus pneumoniae [1] = assay: Minimum inhibitory concentration against Streptococcus pneumoniae - penicillin sensitive, strain STP64; type: functional
Staphylococcus aureus [2] = assay: Minimum inhibitory concentration against Staphylococcus aureus - methicillin resistant Ciprofloxacin sensitive strain MI300; type: functional
Streptococcus pneumoniae [3] = assay: Minimum inhibitory concentration against Streptococcus pneumoniae - penicillin resistant, strain STP51; type: functional
Staphylococcus aureus [4] = assay: Minimum inhibitory concentration against Staphylococcus aureus - methicillin resistant Ciprofloxacin resistant, strain MI339; type: functional
Escherichia coli = assay: Minimum inhibitory concentration against Escherichia coli, strain ES142; type: functional
DNA gyrase [5] = biological target: T1, DNA gyrase (Escherichia coli, UniProt P0AES4+P0AES6); assay: Inhibition of Quinolone resistant gyrase Supercoiling Activity in Escherichia coli; type: protein-complex assay
DNA gyrase [6] = biological target: T1, DNA gyrase; assay: Inhibition of Wild Type DNA gyrase Supercoiling Activity in Escherichia coli; type: protein-complex assay
Streptococcus pneumoniae [7] = assay: Minimum inhibitory concentration against Streptococcus pneumoniae (Penicillin resistant) strain STP51; type: functional
Streptococcus pneumoniae [8] = assay: Minimum inhibitory concentration against Streptococcus pneumoniae (Penicillin sensitive) strain STP64; type: functional
Staphylococcus aureus [9] = assay: Minimum inhibitory concentration against Staphylococcus aureus (Methicillin resistant Ciprofloxacin resistant) strain MI339; type: functional
Staphylococcus aureus [10] = assay: Minimum inhibitory concentration against Staphylococcus aureus (Methicillin resistant Ciprofloxacin sensitive) strain MI300; type: functional

## O=C(O)c1cn(C2CC2)c2cc(N3CCNCC3)c(F)cc2c1=O [CIPROFLOXACIN]
Pseudomonas aeruginosa
  MIC: 0.12 µg/mL (≈ 0.362 µM)
Streptococcus pneumoniae [1]
  MIC: 0.25 µg/mL (≈ 0.754 µM)
Staphylococcus aureus [2]
  MIC: 0.25 µg/mL (≈ 0.754 µM)

## CC[C@@H]1CCN(c2cc3c(cc2F)c(=O)c(C(=O)O)cn3C2CC2)C[C@H]1N
Pseudomonas aeruginosa
  MIC: 1.5 µg/mL (≈ 4.02 µM)
Streptococcus pneumoniae [1]
  MIC: 0.75 µg/mL (≈ 2.01 µM)
Streptococcus pneumoniae [3]
  MIC: 0.375 µg/mL (≈ 1 µM)
Staphylococcus aureus [4]
  MIC: > 3 µg/mL
Staphylococcus aureus [2]
  MIC: 0.094 µg/mL (≈ 0.252 µM)
Escherichia coli
  MIC: 0.012 µg/mL (≈ 0.0321 µM)

## CC[C@H]1CCN(c2ccc3c(=O)c(C(=O)O)cn(C4CC4)c3c2OC)C[C@H]1N
Pseudomonas aeruginosa
  MIC: 4 µg/mL (≈ 10.4 µM)
Streptococcus pneumoniae [1]
  MIC: 1 µg/mL (≈ 2.59 µM)
Streptococcus pneumoniae [3]
  MIC: 0.5 µg/mL (≈ 1.3 µM)
Staphylococcus aureus [4]
  MIC: 4 µg/mL (≈ 10.4 µM)
Staphylococcus aureus [2]
  MIC: 0.25 µg/mL (≈ 0.649 µM)
Escherichia coli
  MIC: 0.125 µg/mL (≈ 0.324 µM)

## O=C(O)c1cn(C2CC2)c2c(Cl)c(N3CCNCC3)ccc2c1=O
Pseudomonas aeruginosa
  MIC: 0.5 µg/mL (≈ 1.44 µM)
Streptococcus pneumoniae [1]
  MIC: 4 µg/mL (≈ 11.5 µM)
Staphylococcus aureus [4]
  MIC: 8 µg/mL (≈ 23 µM)
Staphylococcus aureus [2]
  MIC: 0.25 µg/mL (≈ 0.719 µM)

## COc1c(N2CCC[C@H](N)C2)ccc2c(=O)c(C(=O)O)cn(C3CC3)c12
DNA gyrase [5]
  IC50: 35.8 µM
DNA gyrase [6]
  IC50: 17.9 µM
Pseudomonas aeruginosa
  MIC: 0.5 µg/mL (≈ 1.4 µM)
Streptococcus pneumoniae [1]
  MIC: 0.03 µg/mL (≈ 0.0839 µM)
Streptococcus pneumoniae [3]
  MIC: < 0.008 µg/mL
Staphylococcus aureus [4]
  MIC: 1 µg/mL (≈ 2.8 µM)
Staphylococcus aureus [2]
  MIC: < 0.06 µg/mL
Escherichia coli
  MIC: 0.03 µg/mL (≈ 0.0839 µM)

## COc1c(N2CCNC(C)C2)c(F)cc2c(=O)c(C(=O)O)cn(C3CC3)c12 (stereo not given) [GATIFLOXACIN]
Pseudomonas aeruginosa
  MIC: 0.12 µg/mL (≈ 0.32 µM)
Streptococcus pneumoniae [1]
  MIC: 0.12 µg/mL (≈ 0.32 µM)
Staphylococcus aureus [4]
  MIC: 4 µg/mL (≈ 10.7 µM)
Staphylococcus aureus [2]
  MIC: 0.06 µg/mL (≈ 0.16 µM)
Escherichia coli
  MIC: 0.015 µg/mL (≈ 0.04 µM)

## CC[C@@H]1CCN(c2ccc3c(=O)c(C(=O)O)cn(C4CC4)c3c2Cl)C[C@H]1N
DNA gyrase [5]
  IC50: 8.21 µM
DNA gyrase [6]
  IC50: 4.1 µM
Pseudomonas aeruginosa
  MIC: 0.125 µg/mL (≈ 0.321 µM)
Streptococcus pneumoniae [1]
  MIC: < 0.004 µg/mL
Staphylococcus aureus [4]
  MIC: 0.31 µg/mL (≈ 0.795 µM)
Staphylococcus aureus [2]
  MIC: < 0.004 µg/mL
Escherichia coli
  MIC: < 0.004 µg/mL

## CC[C@@H]1CCN(c2nc3c(cc2F)c(=O)c(C(=O)O)cn3C2CC2)C[C@H]1N
DNA gyrase [5]
  IC50: > 273 µM
DNA gyrase [6]
  IC50: 68.4 µM
Pseudomonas aeruginosa
  MIC: 4 µg/mL (≈ 10.7 µM)
Streptococcus pneumoniae [1]
  MIC: 4 µg/mL (≈ 10.7 µM)
Streptococcus pneumoniae [3]
  MIC: 2 µg/mL (≈ 5.34 µM)
Staphylococcus aureus [4]
  MIC: > 4 µg/mL
Staphylococcus aureus [2]
  MIC: 0.25 µg/mL (≈ 0.668 µM)
Escherichia coli
  MIC: 0.03 µg/mL (≈ 0.0801 µM)

## COc1c(N2CCC[C@H](N)C2)c(F)cc2c(=O)c(C(=O)O)cn(C3CC3)c12
DNA gyrase [5]
  IC50: 17 µM
DNA gyrase [6]
  IC50: 4.26 µM
Pseudomonas aeruginosa
  MIC: 1 µg/mL (≈ 2.66 µM)
Streptococcus pneumoniae [1]
  MIC: 0.125 µg/mL (≈ 0.333 µM)
Streptococcus pneumoniae [3]
  MIC: 0.063 µg/mL (≈ 0.168 µM)
Staphylococcus aureus [4]
  MIC: 0.5 µg/mL (≈ 1.33 µM)
Staphylococcus aureus [2]
  MIC: 0.031 µg/mL (≈ 0.0826 µM)
Escherichia coli
  MIC: 0.031 µg/mL (≈ 0.0826 µM)

## CC[C@@H]1CCN(c2c(F)cc3c(=O)c(C(=O)O)cn(C4CC4)c3c2OC)C[C@H]1N
DNA gyrase [5]
  IC50: 15.9 µM
DNA gyrase [6]
  IC50: 7.93 µM
Pseudomonas aeruginosa
  MIC: 1 µg/mL (≈ 2.48 µM)
Streptococcus pneumoniae [1]
  MIC: 0.031 µg/mL (≈ 0.0768 µM)
Streptococcus pneumoniae [3]
  MIC: 0.008 µg/mL (≈ 0.0198 µM)
Staphylococcus aureus [4]
  MIC: 0.125 µg/mL (≈ 0.31 µM)
Staphylococcus aureus [2]
  MIC: 0.008 µg/mL (≈ 0.0198 µM)
Escherichia coli
  MIC: 0.016 µg/mL (≈ 0.0397 µM)

## CC[C@@H]1CCN(c2c(F)cc3c(=O)c(C(=O)O)cn(C4CC4)c3c2F)C[C@H]1N
DNA gyrase [5]
  IC50: 32.7 µM
DNA gyrase [6]
  IC50: 0.511 µM
Pseudomonas aeruginosa
  MIC: 0.75 µg/mL (≈ 1.92 µM)
Streptococcus pneumoniae [1]
  MIC: 0.023 µg/mL (≈ 0.0588 µM)
Streptococcus pneumoniae [3]
  MIC: 0.012 µg/mL (≈ 0.0307 µM)
Staphylococcus aureus [4]
  MIC: 0.188 µg/mL (≈ 0.48 µM)
Staphylococcus aureus [2]
  MIC: 0.006 µg/mL (≈ 0.0153 µM)
Escherichia coli
  MIC: 0.006 µg/mL (≈ 0.0153 µM)

## N[C@H]1CCCN(c2ccc3c(=O)c(C(=O)O)cn(C4CC4)c3c2Cl)C1
DNA gyrase [5]
  IC50: 35.4 µM
DNA gyrase [6]
  IC50: 8.84 µM
Pseudomonas aeruginosa
  MIC: 0.5 µg/mL (≈ 1.38 µM)
Streptococcus pneumoniae [1]
  MIC: 0.12 µg/mL (≈ 0.332 µM)
Streptococcus pneumoniae [3]
  MIC: < 0.008 µg/mL
Staphylococcus aureus [4]
  MIC: 1 µg/mL (≈ 2.76 µM)
Staphylococcus aureus [2]
  MIC: 0.016 µg/mL (≈ 0.0442 µM)
Escherichia coli
  MIC: 0.03 µg/mL (≈ 0.0829 µM)

## N[C@H]1CCCN(c2c(F)cc3c(=O)c(C(=O)O)cn(C4CC4)c3c2F)C1
Pseudomonas aeruginosa
  MIC: 0.5 µg/mL (≈ 1.38 µM)
Streptococcus pneumoniae [7]
  MIC: 0.13 µg/mL (≈ 0.358 µM)
Streptococcus pneumoniae [8]
  MIC: 0.06 µg/mL (≈ 0.165 µM)
Staphylococcus aureus [9]
  MIC: 4 µg/mL (≈ 11 µM)
Staphylococcus aureus [10]
  MIC: 0.13 µg/mL (≈ 0.358 µM)
Escherichia coli
  MIC: 0.03 µg/mL (≈ 0.0826 µM)

## COc1c(N2CC[C@@H]([C@@H](C)N)C2)c(F)cc2c(=O)c(C(=O)O)cn(C3CC3)c12
Pseudomonas aeruginosa
  MIC: 0.25 µg/mL (≈ 0.642 µM)
Streptococcus pneumoniae [1]
  MIC: 0.008 µg/mL (≈ 0.0205 µM)
Streptococcus pneumoniae [3]
  MIC: 0.008 µg/mL (≈ 0.0205 µM)
Staphylococcus aureus [4]
  MIC: 0.016 µg/mL (≈ 0.0411 µM)
Staphylococcus aureus [2]
  MIC: 0.008 µg/mL (≈ 0.0205 µM)
Escherichia coli
  MIC: 0.008 µg/mL (≈ 0.0205 µM)

## CC[C@@H]1CCN(c2ccc3c(=O)c(C(=O)O)cn(C4CC4)c3c2OC)C[C@H]1N
DNA gyrase [5]
  IC50: 33.2 µM
DNA gyrase [6]
  IC50: 8.3 µM
Pseudomonas aeruginosa
  MIC: 1 µg/mL (≈ 2.59 µM)
Streptococcus pneumoniae [1]
  MIC: < 0.003 µg/mL
Streptococcus pneumoniae [3]
  MIC: 0.008 µg/mL (≈ 0.0208 µM)
Staphylococcus aureus [4]
  MIC: 0.25 µg/mL (≈ 0.649 µM)
Staphylococcus aureus [2]
  MIC: < 0.004 µg/mL
Escherichia coli
  MIC: 0.006 µg/mL (≈ 0.0156 µM)

## NC1CCN(c2c(F)cc3c(=O)c(C(=O)O)cn(C4CC4)c3c2Cl)C1 (stereo not given) [CLINAFLOXACIN]
DNA gyrase [5]
  IC50: 2.73 µM
DNA gyrase [6]
  IC50: 0.547 µM
Pseudomonas aeruginosa
  MIC: 0.06 µg/mL (≈ 0.164 µM)
Streptococcus pneumoniae [1]
  MIC: 0.03 µg/mL (≈ 0.082 µM)
Streptococcus pneumoniae [3]
  MIC: 0.15 µg/mL (≈ 0.41 µM)
Staphylococcus aureus [4]
  MIC: 0.5 µg/mL (≈ 1.37 µM)
Staphylococcus aureus [2]
  MIC: 0.03 µg/mL (≈ 0.082 µM)
Escherichia coli
  MIC: 0.015 µg/mL (≈ 0.041 µM)

## N[C@H]1CCCN(c2nc3c(cc2F)c(=O)c(C(=O)O)cn3C2CC2)C1
DNA gyrase [5]
  IC50: > 296 µM
DNA gyrase [6]
  IC50: 4.62 µM
Pseudomonas aeruginosa
  MIC: 1 µg/mL (≈ 2.89 µM)
Streptococcus pneumoniae [1]
  MIC: 4 µg/mL (≈ 11.5 µM)
Streptococcus pneumoniae [3]
  MIC: 4 µg/mL (≈ 11.5 µM)
Staphylococcus aureus [4]
  MIC: > 4 µg/mL
Staphylococcus aureus [2]
  MIC: 2 µg/mL (≈ 5.77 µM)
Escherichia coli
  MIC: 0.125 µg/mL (≈ 0.361 µM)
